Results from US5624831A, “Immobilized acetylcholinesterase stabilized by a film of gelatin or albumin containing trehalose” (priority 1994, dated 1997).

Key:
[1] = biological target: T1, torpedo fish AchE (Torpedo marmorata, UniProt P07692); experiment: Analysis of 5 pesticides dissolved in water by inhibition of immobilized AchE (Table VIII); format: biochemical; settings: for times less sensitivity of detection: compared with Naled, Carbofuran, Paraoxon; for sensitivity of the test (in words): in water, gelatin-trehalose protected
T1 construct: from tissue

[2] = biological target: T2, acetylcholinesterase (Torpedo marmorata, UniProt P07692); experiment: Analysis of pesticides in salad extracts by inhibition of acetylcholinesterase (Table IX); format: biochemical; settings: read-out: % relative activity
T2 construct: from tissue
Text: The analysis of the presence of these inhibitors was done following the protocol described in example 1.

[3] = system: Horseradish peroxidase; experiment: Stability of immobilized peroxidase under gelatin or albumin film containing trehalose, 7 days dry storage (Table II); format: physicochemical; settings: included in the gelifying film
Description: Horseradish peroxidase (0.2 mg/ml) was used to sensitize the wells of microtitration plates, following the method described in example I. After sensitization during one night at 4° C., the wells were covered either with a warm solution (47° C. for the solubilisation, 37° C. for the pouring into the wells) of a 5% gelatin solution or a 5% albumin solution, both containing trehalose in decreasing concentrations starting from a concentration of 8 mg/ml. Triton X100 at a concentration of 0.04% was added to the albumin solution, as a wetting agent. The wells were immediately emptied without rinsing and were thereafter placed at 4° C. and 37° C. duiring 7 days in a dry incubator. The remaining peroxidase activity was measured by addition to the wells of 100 μl of a solution of tetramethylbenzidine and hydrogen peroxide in a citrate-phosphate buffer at pH 5.5. The blue coloration obtained changes to yellow with sulfuric acid (100 μl, 0.5 N), added to stop the enzymatic reaction. The results are given in adsorbances read at 450 nm (table II)

[4] = system: Acetylcholinesterase, extracted from torpedo fish; experiment: Stability of acetylcholinesterase-sensitized wells: residual enzymatic activity after 7 days dry storage (Table I); format: physicochemical
Description: After a night of incubation at 4° C., the wells were rinsed and thereafter subjected to the following analysis:
1. Control (nothing added)
2. Rinsing of the wells with buffered water (0.05 M phosphate pH 7,00) containing 15% trehalose.
3. Covering of the wells with buffered water (0.05 M phosphate pH 7,00) containing 5% gelatin (240 bloom), followed by the elimination of the gelatin without rinsing
4. Covering of the wells with buffered water (0.05 M phosphate pH 7,00) containing 5% gelatin (240 bloom) and 15% trehalose, followed by an elimination of the gelatin witout rinsing.
The gelatin was solubilized by heating at 47° C., then cooling down to 37° C. before dispensing in the wells. The wells of the microtitration plates handled in this way were placed at 4° C., 37° C. and 50° C. during 7 days in a dry incubator, then analyzed for the remaining enzymatic activity, according to Ellman's method. Results are given in adsorbances read at 412 nm (table I).

[5] = system: acetylcholinesterase; experiment: Analysis of a drug in spiked serum by inhibition of acetylcholinesterase; format: biochemical; settings: serum of a healthy subject
Description: (§1) The serum of a healthy subject was spiked with increasing concentrations of pyridostygmin and thereafter analysed for the enzymatic activity of acetylcholinesterase, following the protocol already outlined in former examples. One sees in graph 1 that the detection Of the inhibitor of AchE goes down to 1 to 2 μg/ml of this drug in serum.
as §1, with “neostygmin” for “pyridostygmin”, “2” for “1”, “of this” for “Of the”, “50 ng/ml” for “1 to 2 μg/ml”
as §1, with “A” for “The”, “eserin” for “pyridostygmin”, “3” for “1”, “of this” for “Of the”, “100 ng/ml” for “1 to 2 μg/ml”

T1 sequence (P07692 25-590): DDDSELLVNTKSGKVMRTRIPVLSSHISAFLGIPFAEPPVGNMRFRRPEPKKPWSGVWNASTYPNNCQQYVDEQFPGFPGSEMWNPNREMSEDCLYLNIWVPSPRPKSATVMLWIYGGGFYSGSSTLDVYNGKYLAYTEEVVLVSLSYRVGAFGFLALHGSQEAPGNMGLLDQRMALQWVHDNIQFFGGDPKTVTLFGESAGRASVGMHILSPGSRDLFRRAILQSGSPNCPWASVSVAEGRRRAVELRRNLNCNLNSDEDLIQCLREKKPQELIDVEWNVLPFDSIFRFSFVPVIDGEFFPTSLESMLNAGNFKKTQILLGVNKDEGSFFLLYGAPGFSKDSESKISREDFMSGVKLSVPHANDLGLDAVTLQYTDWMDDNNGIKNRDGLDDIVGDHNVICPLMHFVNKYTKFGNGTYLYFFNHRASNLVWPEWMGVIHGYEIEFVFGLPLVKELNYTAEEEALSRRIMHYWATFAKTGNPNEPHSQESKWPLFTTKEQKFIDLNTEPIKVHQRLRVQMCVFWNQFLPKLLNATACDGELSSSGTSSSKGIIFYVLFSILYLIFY
T2 sequence (P07692 25-590): as above

CNC(=O)Oc1cccc2ccccc12 [Carbaryl]
% of Residual activity ([1]; 10 μg/litre in water): 80% | % of Residual activity ([1]; 50 μg/litre in water): 61% | % of Residual activity ([1]; 100 μg/litre in water): 44% | % of Residual activity ([1]; 1000 μg/litre in water): 18% | times less sensitivity of detection [1]: 100 times | activity at 0.01 µg/mL [2]: 80% | activity at 0.05 µg/mL [2]: 61% | activity at 0.1 µg/mL [2]: 51% | activity at 0.5 µg/mL [2]: 26% | activity at 1 µg/mL [2]: 28%

CNC(=O)Oc1cccc2c1OC(C)(C)C2 [Carbofuran]
% of Residual activity ([1]; 01 μg/litre in water): 73% | % of Residual activity ([1]; 10 μg/litre in water): 35% | % of Residual activity ([1]; 50 μg/litre in water): 20% | % of Residual activity ([1]; 100 μg/litre in water): 18% | % of Residual activity ([1]; 1000 μg/litre in water): 14% | sensitivity of the test (in words) [1]: most sensitive

COP(=O)(OC)OC=C(Cl)Cl [Dichlorvos]
% of Residual activity ([1]; 10 μg/litre in water): 80% | % of Residual activity ([1]; 50 μg/litre in water): 60% | % of Residual activity ([1]; 100 μg/litre in water): 49% | % of Residual activity ([1]; 1000 μg/litre in water): 3% | times less sensitivity of detection [1]: 100 times

COP(=O)(OC)OC(Br)C(Cl)(Cl)Br (centres unmarked) [Naled]
% of Residual activity ([1]; 01 μg/litre in water): 73% | % of Residual activity ([1]; 10 μg/litre in water): 11% | % of Residual activity ([1]; 50 μg/litre in water): 0% | % of Residual activity ([1]; 100 μg/litre in water): 0% | % of Residual activity ([1]; 1000 μg/litre in water): 0% | sensitivity of the test (in words) [1]: most sensitive | activity at 0.001 µg/mL [2]: 90% | activity at 0.01 µg/mL [2]: 63% | activity at 0.05 µg/mL [2]: 20% | activity at 0.1 µg/mL [2]: 9% | activity at 1 µg/mL [2]: 3%

CCOP(=O)(OCC)Oc1ccc([N+](=O)[O-])cc1 [Paraoxon]
% of Residual activity ([1]; 01 μg/litre in water): 80% | % of Residual activity ([1]; 10 μg/litre in water): 40% | % of Residual activity ([1]; 50 μg/litre in water): 0% | % of Residual activity ([1]; 100 μg/litre in water): 0% | % of Residual activity ([1]; 1000 μg/litre in water): 0% | sensitivity of the test (in words) [1]: followed closely

OC[C@H]1O[C@H](O[C@H]2O[C@H](CO)[C@@H](O)[C@H](O)[C@H]2O)[C@H](O)[C@@H](O)[C@@H]1O [Trehalose, α-D glucopyranosyl-α-D-glucopyranoside]
concentration of trehalose sufficient and necessary to stabilize the dry enzyme [3]: Two | Residual enzymatic activity after storage of AchE-sensitized wells during 7 days ([4]; 4° C.): 1.88 adsorbances read at 412 nm | Residual enzymatic activity after storage of AchE-sensitized wells during 7 days ([4]; 37° C.): 0.97 adsorbances read at 412 nm | Residual enzymatic activity after storage of AchE-sensitized wells during 7 days ([4]; 50° C.): 0.12 adsorbances read at 412 nm

CNC(=O)Oc1ccc2c(c1)[C@]1(C)CCN(C)[C@@H]1N2C [eserin]
detection of this inhibitor of AchE goes down to [5]: 100 ng/mL

CN(C)C(=O)Oc1cccc([N+](C)(C)C)c1 [neostygmin]
detection of this inhibitor of AchE goes down to [5]: 50 ng/mL
